Experiments:
TRα = target: T1, TRα (Homo sapiens, UniProt P10827); assay: LanthaScreen TR-FRET Thyroid Receptor alfa Coactivator Assay (in vitro binding activity); conditions: TR alfa-LBD
T1 construct: 5 μL of 4×TR beta/alfa-LBD; purchased Invitrogen PV4687
Method in brief: (§1)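 TR-FRET coactivator recruitment used GST-tagged TRα or TRβ ligand-binding domain with fluorescein-SRC2-2 peptide and Tb anti-GST antibody (0.4 μM and 8 nM in the added mix). Compound was run as 10-point 3-fold dilutions (2% DMSO solution) for 1 h at room temperature in the dark. EC50 came from the 520/495 nm emission ratio.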

TRβ = target: T2, TRβ (Homo sapiens, UniProt P10828); assay: LanthaScreen TR-FRET Thyroid Receptor beta Coactivator Assay (in vitro binding activity); conditions: TR beta-LBD
T2 construct: 5 μL of 4×TR beta/alfa-LBD; purchased Invitrogen PV4686
T2 sequence (P10828 217-461 limits assumed): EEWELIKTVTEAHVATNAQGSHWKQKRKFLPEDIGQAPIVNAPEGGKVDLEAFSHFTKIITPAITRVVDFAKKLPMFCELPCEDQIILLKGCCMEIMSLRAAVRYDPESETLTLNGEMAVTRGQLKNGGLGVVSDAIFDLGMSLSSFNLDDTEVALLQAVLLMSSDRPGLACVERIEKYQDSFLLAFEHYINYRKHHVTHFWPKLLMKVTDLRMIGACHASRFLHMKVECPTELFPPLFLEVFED
Method in brief: as §1

[1] = Pharmacokinetic determination in SD rats (i.v. and i.g.); assay type: in vivo; conditions: for AUC(0-inf) / AUC(0-t) / Cmax / clearance / half-life / Vd: male, Sprague-Dawley (SD), rat, plasma; for Vd: read-out: VSS
Source text: Test purposes: The following method was used to determine the pharmacokinetics of the compound of the present invention.
Test Materials: • Experimental reagents and test samples used: Propranolol (internal standard), methanol, ammonium acetate, K2EDTA (potassium ethylenediaminetetraacetic acid), formic acid, acetonitrile MTBE (methyl tert-butyl ether). KolliphorHS15 (macrogol 12 hydroxystearate), DMSO (dimethyl sulfoxide) are commercially available • SD rats: male, 180-220 g, 7-8 weeks old, purchased from Human Slack Experimental Animal Co., Ltd.
Each test sample prepared was completely dissolved in a mixture of 5% DMSO+5% KolliphorHS 15+90% Saline according solubility property thereof.
Samples were processed by liquid-liquid extraction, chromatographically separated, quantitatively analyzed by multiple reaction ion monitoring (MRM) on a triple quadrupole tandem mass spectrometer, and the concentration of the results was calculated by instrument quantitative software.
30 μL of plasma sample was precisely pipetted, added with 250 μL of internal standard, and vortexed to mix thoroughly. Plasma samples was extracted once with 1 mL of MTBE, centrifuged at 13,000 rpm for 2 min at 4° C. 800 μL of the supernatant was sucked out, evaporated to dryness in a 96-well nitrogen blower, and the residue was reconstituted with 150 μL of methanol/water (v/v=50/50), vortexed to mix, and injected with an injection volume of 8 μL.
LC/MS/MS method was used to determine the content of the test compound in rat plasma after administration of different compounds.
Pharmacokinetic parameters were calculated using a noncompartmental method by WinNonLin 6.1 software.

T1 sequence (P10827 163-410 isoform P10827-2 limits assumed, other chains not shown): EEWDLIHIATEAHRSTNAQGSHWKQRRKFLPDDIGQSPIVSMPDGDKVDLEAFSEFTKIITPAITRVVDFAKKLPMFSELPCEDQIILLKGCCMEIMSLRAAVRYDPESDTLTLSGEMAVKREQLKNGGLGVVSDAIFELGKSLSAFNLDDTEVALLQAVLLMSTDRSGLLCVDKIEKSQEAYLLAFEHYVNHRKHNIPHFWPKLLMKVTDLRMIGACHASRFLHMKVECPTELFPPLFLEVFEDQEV

| SMILES | EC50 (TRα) [µM] | EC50 (TRβ) [µM] | F ([1]; ig, 5 mg/kg) [%] | AUC(0-inf) ([1]; iv, 1 mg/kg) [ng·h/mL] | AUC(0-t) ([1]; iv, 1 mg/kg) [ng·h/mL] | Cmax ([1]; iv, 1 mg/kg) [ng/mL] | clearance ([1]; iv, 1 mg/kg) [mL/min/kg] | half-life ([1]; iv, 1 mg/kg) [h] | Vd ([1]; iv, 1 mg/kg) [L/kg] | AUC(0-inf) ([1]; po, ig, 5 mg/kg) [ng·h/mL] | AUC(0-t) ([1]; po, ig, 5 mg/kg) [ng·h/mL] | Cmax ([1]; po, ig, 5 mg/kg) [ng/mL] | half-life ([1]; po, ig, 5 mg/kg) [h] |
| --- | --- | --- | --- | --- | --- | --- | --- | --- | --- | --- | --- | --- | --- |
| O=C1c2ccc(Oc3c(Cl)cc(-n4ncc(=O)[nH]c4=O)cc3Cl)cc2CCN1Cc1cccc(OC(F)(F)F)c1 [Example 43, 2-(3,5-dichloro-4-((1-oxo-2-(3-(trifluoromethoxy)benzyl)-1,2,3,4-tetrahydroisoquinolin-6-yl)oxy)phenyl)-1,2,4-triazine-3,5(2H,4H)-dione] | > 100 | 0.031 | 68.4 | 47700 | 39800 | 3410 | 0.349 | 9.52 | 0.26 | 212000 | 134000 | 8120 | 15.7 |
| O=C1c2ccc(Oc3c(Cl)cc(-n4ncc(=O)[nH]c4=O)cc3Cl)cc2CCN1c1ccccc1F [Example 44, 2-(3,5-dichloro-4-((2-(2-fluorophenyl)-1-oxo-1,2,3,4-tetrahydroisoquinolin-6-yl)oxy)phenyl)-1,2,4-triazine-3,5(2H,4H)-dione] | > 100 | 0.0097 | 133.3 | 2150 | 2110 | 5430 | 7.74 | 2.11 | 0.4 | 14300 | 13900 | 9030 | 1.64 |
| O=C1c2ccc(Oc3c(Cl)cc(-n4ncc(=O)[nH]c4=O)cc3Cl)cc2CCN1Cc1cccnc1 [Example 45, 2-(3,5-dichloro-4-((1-oxo-2-(pyridin-3-ylmethyl)-1,2,3,4-tetrahydroisoquinolin-6-yl)oxy)phenyl)-1,2,4-triazine-3,5(2H,4H)-dione] | > 100 | 0.061 | 163.9 | 2510 | 2460 | 1780 | 6.65 | 1.15 | 0.57 | 20600 | 20300 | 5320 | 4.14 |
| O=C1c2ccc(Oc3c(Cl)cc(-n4ncc(=O)[nH]c4=O)cc3Cl)cc2CCN1Cc1ccccn1 [Example 46, 2-(3,5-dichloro-4-((1-oxo-2-(pyridin-2-ylmethyl)-1,2,3,4-tetrahydroisoquinolin-6-yl)oxy)phenyl)-1,2,4-triazine-3,5(2H,4H)-dione] | > 100 | 0.035 | 126.5 | 10000 | 9810 | 4160 | 1.66 | 4.24 | 0.424 | 633000 | 61900 | 6410 | 5.93 |
| O=C1c2ccc(Oc3c(Cl)cc(-n4ncc(=O)[nH]c4=O)cc3Cl)cc2CCN1c1cccnc1 [Example 49, 2-(3,5-dichloro-4-((1-oxo-2-(pyridin-3-yl)-1,2,3,4-tetrahydroisoquinolin-6-yl)oxy)phenyl)-1,2,4-triazine-3,5(2H,4H)-dione] | > 100 | 0.107 | 138.3 | 3730 | 3580 | 5300 | 4.46 | 1.14 | 0.306 | 25800 | 25300 | 9680 | 3.63 |
